Experimental data published in ChEMBL document CHEMBL3272295, “Drugs derived from cannabinoids. 5. delta6a,10a-Tetrahydrocannabinol and heterocyclic analogs containing aromatic side chains” (J Med Chem, 1976).

What was measured:
Mus musculus [1] = experiment: Antidepressant activity in po dosed mouse assessed as potentiation of DOPA-induced effect administered 4 hrs prior to DOPA challenge; assay type: functional; settings: read-out: MED
Rattus norvegicus [2] = experiment: Antianxiety activity in Long-Evans rat assessed as reduction in motor activity at 5 mg/kg, po after 2 hrs relative to vehicle-treated control; assay type: functional; parameters: scale not given: the % may be the effect or the level left
Felis catus [3] = experiment: Hypnotic activity in cat assessed as increase in non-REM sleep time at 2 mg/kg administered orally through diet measured for 12 hrs by EEG analysis; assay type: functional; settings: route oral
Mus musculus [4] = experiment: Anticonvulsant activity in po dosed mouse assessed as dose required to protect 80% of animal measured after 1 to 4 hrs by audiogenic seizure test; assay type: functional
Rattus norvegicus [5] = experiment: Antihypertensive activity in spontaneously hypertensive rat model assessed as reduction in blood pressure at 0.3 mg/kg, po after 3 hrs; assay type: functional; parameters: scale not given: the % may be the effect or the level left
Rattus norvegicus [6] = experiment: Antipsychotic activity in rat assessed as reduction of methamphetamine-induced hyperactivity at 0.5 mg/kg, po administered prior to methamphetamine challenge relative to vehicle-treated control; assay type: functional; parameters: scale not given: the % may be the effect or the level left
Rattus norvegicus [7] = experiment: Antipsychotic activity in rat assessed as reduction of methamphetamine-induced hyperactivity at 2 mg/kg, po administered prior to methamphetamine challenge relative to vehicle-treated control; assay type: functional; parameters: scale not given: the % may be the effect or the level left
Mus musculus [8] = experiment: Antianxiety activity in albino BALB/cJ mouse assessed as reduction in footshock-induced fighting behavior at 1 mg/kg, po after 30 to 90 mins; assay type: functional; parameters: scale not given: the % may be the effect or the level left
Rhesus monkey = experiment: Antianxiety activity in po dosed rhesus monkey assessed as antiagressive behavior measured every hour post dosing; assay type: functional; settings: Macaca mulatta, read-out: MED
Rattus norvegicus [9] = experiment: Antisecretory activity in Sprague-Dawley rat assessed as decrease in volume at 50 mg/kg, po administered 30 mins prior to pylorus ligation measured after 4 hrs relative to control; assay type: functional; parameters: scale not given: the % may be the effect or the level left
Rattus norvegicus [10] = experiment: Antisecretory activity in Sprague-Dawley rat assessed as decrease in acidity at 50 mg/kg, po administered 30 mins prior to pylorus ligation measured after 4 hrs relative to control; assay type: functional; parameters: scale not given: the % may be the effect or the level left
Felis catus [11] = experiment: Hypnotic activity in cat assessed as decrease in total sleep time at 0.5 mg/kg administered orally through diet measured for 12 hrs by EEG analysis; assay type: functional; settings: route oral
Rattus norvegicus [12] = experiment: Antisecretory activity in Sprague-Dawley rat assessed as decrease in pepsin output at 50 mg/kg, po administered 30 mins prior to pylorus ligation measured after 4 hrs relative to control; assay type: functional; parameters: scale not given: the % may be the effect or the level left
Mus musculus [13] = experiment: Antianxiety activity in albino BALB/cJ mouse assessed as reduction in footshock-induced fighting behavior at 5 mg/kg, po after 30 to 90 mins; assay type: functional; parameters: scale not given: the % may be the effect or the level left
[14] = Acute toxicity in po dosed mouse; assay type: organism-based; settings: in vivo
Rattus norvegicus [15] = experiment: (§1) Antidiarrheal activity in Charles River rat assessed as inhibition of castor oil-induced diarrhea by measuring protected animals at 0.5 mg/kg, po administered for 2 days followed by 0.5 mg/kg, po on test day administered 1 hr prior to castor oil challenge measured after 1 hr relative to vehicle-treated control; assay type: functional
Felis catus [16] = experiment: Hypnotic activity in cat assessed as increase in total sleep time at 2 mg/kg administered orally through diet measured for 12 hrs by EEG analysis; assay type: functional; settings: route oral
Rattus norvegicus [17] = experiment: as §1, with “by 1” for “by 0.5”; assay type: functional
Rattus norvegicus [18] = species: Rattus norvegicus; experiment: animal or person; assay type: functional; settings: Charles River, route oral
Description: Antidiarrheal activity in Charles River rat assessed as inhibition of castor oil-induced diarrhea by measuring protected animals at 0.5 mg/kg, po administered 1 hr prior to castor oil challenge measured after 1 hr relative to vehicle-treated control

Canis familiaris = experiment: Antianxiety activity in po dosed dog assessed as ataxia administered as single dose measured up to 24 hrs; assay type: functional; settings: Canis lupus familiaris, read-out: MED
Rattus norvegicus [19] = experiment: Antidiarrheal activity in Charles River rat assessed as inhibition of castor oil-induced diarrhea by measuring protected animals at 0.05 mg/kg, po administered 1 hr prior to castor oil challenge measured after 1 hr relative to vehicle-treated control; assay type: functional
Rattus norvegicus [20] = experiment: Antihypertensive activity in spontaneously hypertensive rat model assessed as reduction in blood pressure at 0.3 mg/kg, po after 24 hrs; assay type: functional; parameters: scale not given: the % may be the effect or the level left
Rattus norvegicus [21] = experiment: Antidiarrheal activity in Charles River rat assessed as inhibition of castor oil-induced diarrhea by measuring protected animals at 0.1 mg/kg, po administered 1 hr prior to castor oil challenge measured after 1 hr relative to vehicle-treated control; assay type: functional
Rattus norvegicus [22] = experiment: Analgesic activity in po dosed Sprague-Dawley rat after 15 to 90 mins by tail flick test; assay type: functional
Rattus norvegicus [23] = experiment: Antisecretory activity in Sprague-Dawley rat assessed as decrease in acid output at 50 mg/kg, po administered 30 mins prior to pylorus ligation measured after 4 hrs relative to control; assay type: functional; parameters: scale not given: the % may be the effect or the level left
Mus musculus [24] = experiment: Increase in footshock-induced fighting behavior in albino BALB/cJ mouse at 10 mg/kg, po after 30 to 90 mins; assay type: functional
Rattus norvegicus [25] = experiment: Antisecretory activity in Sprague-Dawley rat assessed as decrease in pepsin concentration at 50 mg/kg, po administered 30 mins prior to pylorus ligation measured after 4 hrs relative to control; assay type: functional; parameters: scale not given: the % may be the effect or the level left
Felis catus [26] = experiment: Hypnotic activity in cat assessed as decrease in non-REM sleep time at 0.5 mg/kg administered orally through diet measured for 12 hrs by EEG analysis; assay type: functional; settings: route oral
Mus musculus [27] = experiment: Analgesic activity in po dosed mouse assessed as inhibition of acetic acid-induced writhing administered 30 mins prior to acetic acid challenge measured after 5 mins for 20 mins; assay type: functional
Rattus norvegicus [28] = experiment: as §1, with “0.2” for “0.5”, “5” for “2”; assay type: functional
Felis catus [29] = experiment: Hypnotic activity in cat assessed as increase in non-REM sleep time at 0.5 mg/kg administered orally through diet measured for 12 hrs by EEG analysis; assay type: functional; settings: route oral
Rattus norvegicus [30] = experiment: Antipsychotic activity in rat assessed as reduction of methamphetamine-induced hyperactivity at 5 mg/kg, po administered prior to methamphetamine challenge relative to vehicle-treated control; assay type: functional; parameters: scale not given: the % may be the effect or the level left
Mus musculus [31] = experiment: Increase in footshock-induced fighting behavior in albino BALB/cJ mouse at 5 mg/kg, po after 30 to 90 mins; assay type: functional
Felis catus [32] = experiment: Hypnotic activity in cat assessed as increase in total sleep time at 0.5 mg/kg administered orally through diet measured for 12 hrs by EEG analysis; assay type: functional; settings: route oral
Rattus norvegicus [33] = experiment: Antianxiety activity in Long-Evans rat assessed as reduction in motor activity at 10 mg/kg, po after 2 hrs relative to vehicle-treated control; assay type: functional; parameters: scale not given: the % may be the effect or the level left
Rattus norvegicus [34] = experiment: Antipsychotic activity in rat assessed as reduction of methamphetamine-induced hyperactivity at 1 mg/kg, po administered prior to methamphetamine challenge relative to vehicle-treated control; assay type: functional; parameters: scale not given: the % may be the effect or the level left

With `CC1CCC2=C(C1)c1c(O)cc(C(C)CCCc3ccc(F)cc3)cc1OC2(C)C` (configuration not stated) the minimal effective dose (Mus musculus [1]) was 10 mg/kg, the Activity (Rattus norvegicus [2]) was 90% and the Time (Felis catus [3]) was 94 min. The Activity (Mus musculus [4]) was 30 mg/kg, the Activity (Rattus norvegicus [5]) was 31% and the Activity (Rattus norvegicus [6]) was 30%. For the same compound, the Activity (Rattus norvegicus [7]) was 70%, the Activity (Mus musculus [8]) was 60% and the minimal effective dose (Rhesus monkey) was 0.1 mg/kg. It also gave an Activity (Rattus norvegicus [9]) of 35.5%, an Activity (Rattus norvegicus [10]) of 7.8% and a Time (Felis catus [11]) of -22 min. For the same compound, the Activity (Rattus norvegicus [12]) was 43.7%, the Activity (Mus musculus [13]) was 92% and the LD50 [14] was ≥ 1000 mg/kg. For the same compound, the inhibition in vivo at 0.5 mg/kg (Rattus norvegicus [15]) was 0%, the Time (Felis catus [16]) was 126 min and the “inhibition (INH)” value (Rattus norvegicus [17]) was 0%. It also gave an inhibition in vivo at 0.5 mg/kg (Rattus norvegicus [18]) of 70%, a minimal effective dose (Canis familiaris) of 0.5 mg/kg and an inhibition in vivo at 0.05 mg/kg (Rattus norvegicus [19]) of 0%. The Activity (Rattus norvegicus [20]) was 12%, the inhibition in vivo at 0.1 mg/kg (Rattus norvegicus [21]) was 50% and the ED50 (Rattus norvegicus [22]) was 5.9 mg/kg. For the same compound, the Activity (Rattus norvegicus [23]) was 39.6%, the Activity (Mus musculus [24]) was 26% and the Activity (Rattus norvegicus [25]) was 11.4%. For the same compound, the Time (Felis catus [26]) was -4 min and the ED50 (Mus musculus [27]) was 8.3 mg/kg.
Compound `CCOC(=O)C1(c2ccccc2)CCN(CCC(C#N)(c2ccccc2)c2ccccc2)CC1` [DIPHENOXYLATE] has an inhibition in vivo at 0.2 mg/kg (Rattus norvegicus [28]) of 90%.
Work on `C#CCN1CCC2=C(C1)c1c(O)cc(C(C)C(C)CCc3ccc(F)cc3)cc1OC2(C)C` (configuration not stated) yielded an Activity (Rattus norvegicus [2]) of 59%, a Time (Felis catus [29]) of 60 min and an Activity (Rattus norvegicus [30]) of 53%. The Activity (Mus musculus [31]) was 30%, the Time (Felis catus [32]) was 58 min and the LD50 [14] was ≥ 1000 mg/kg. It also gave an Activity (Rattus norvegicus [33]) of 73%, an inhibition in vivo at 0.5 mg/kg (Rattus norvegicus [18]) of 0% and an Activity (Rattus norvegicus [34]) of 23%. The minimal effective dose (Canis familiaris) was 10 mg/kg, the ED50 (Rattus norvegicus [22]) was 8.3 mg/kg and the ED50 (Mus musculus [27]) was 4.4 mg/kg.
